The results in this text go back to PubChem BioAssay AID2305 (GlaxoSmithKline (GSK), 2010).

For the test, the system named is P. falciparum 3D7 growth, pLDH absorbance. The experiment in a line: blood-stage malaria parasite growth potency – strain 3D7, dose response (AID 2305).
Usually IC50 stands for the concentration that inhibits the measured activity by half. High values mean lower potency, low ones higher potency. `Cn1nccc1C(=O)NCCNCc1ccc(-c2cccc(-c3nc4ccc(F)cc4[nH]3)c2)cc1`: the concentration for half-maximal inhibition (IC50) stood at 220 nM.

`Cc1ccc(NC(=O)c2ccc(NCCCN(C)Cc3ccccc3)c([N+](=O)[O-])c2)cc1F` had an IC50 of 700 nM. Then `O=C(NCc1ccccc1)Nc1ccc(-c2ccc(-c3nc4ccc(C(F)(F)F)cc4[nH]3)cc2)cc1`, with 670 nM; and `CCN(CC)CCN(Cc1ccc(-c2ccc(C(F)(F)F)cc2)cc1)C(=O)Cn1c(CCc2c(F)ccc(F)c2F)nc(=O)c2ccccc21`, with 240 nM. In turn, `COc1ccc2ccccc2c1CCCCN1CCN(CC(c2ccc(F)cc2)N2CCC(N3CCCC3)CC2)CC1` (configuration not stated) came in with a 50% inhibitory concentration (IC50) of 620 nM.

The molecule `COc1cccc(CNC[C@@H](O)[C@H](Cc2ccccc2)NC(=O)c2cc(N3CCCC3=O)c3[nH]cc(C(C)C)c3c2)c1` had a half-inhibitory concentration (IC50) of 530 nM. Then `CCCCCN1CCCC1CNS(=O)(=O)c1cccc(C(=O)Nc2cccc(C#N)c2)c1` (configuration not stated), with 980 nM; and `CCc1cn2c3c(cc(C(=O)N[C@@H](Cc4ccccc4)[C@H](O)CNC4CCCCC4)cc13)N(C)S(=O)(=O)C2`, with 90 nM; and `O=C(Nc1cc(C(F)(F)F)cc(C(F)(F)F)c1)N1CCC(CCN2CCC(c3c[nH]c4ccccc34)CC2)CC1`, with 1260 nM. Then `Cc1cccc(-c2nc3[nH]c(=O)cc(NC(=O)C(C)C)n3n2)c1`, with 420 nM; and `CCCOc1c(CCNCCCCNCCc2ccc3ccccc3c2OCCC)ccc2ccccc12`, with 480 nM; and `CCCc1ccc2c(c1O)CCC(N(CCC)CCC)C2` (configuration not stated), with 890 nM. Then `Cc1cc(O)c2c3c1C(=O)C=C1C3c3c(c(O)cc(O)c3C(=O)C1(C)C)C2=O` (configuration not stated), with 1680 nM; and `Cn1nccc1C(=O)NCCNCc1ccc(-c2cccc(-c3nc4ccccc4[nH]3)c2)cc1`, with 140 nM; and `O=C(Nc1ccc(Cl)cc1)Nc1cccc(-c2cccc(-c3nc4ccc(C(F)(F)F)cc4[nH]3)c2)c1`, with 230 nM. `CCCCc1nc2nc(N)nc(N)c2cc1CCC` showed an IC50 of 310 nM. Then `CC1CCCN(S(=O)(=O)c2cc(Br)cc3c2N(C(=O)C2CC2)CC3)C1` (configuration not stated), with 720 nM. Then `COC(=O)c1ccc(Nc2nccc(Nc3ccc(Oc4ccccc4)cc3)n2)cc1`, with 1020 nM; and `CNCCNCc1ccc(-c2ccc(-c3nc4c(C)cccc4[nH]3)cc2)cc1`, with 670 nM; and `O=C(/C=C/c1ccc(Cl)c(Cl)c1)NCCCCCN1CCCC(CCCNC(=O)Nc2ccc(C(F)(F)F)cc2)C1` (configuration not stated), with 530 nM. The molecule `O=C(Nc1cccc(-c2ccc(-c3nc4ccccc4[nH]3)cc2)c1)c1csnn1` showed an IC50 of 1070 nM. Then `CCC[C@@H]([C@@H](CC1CCC(C)CC1)C(=O)N[C@@H](CCCCNC(=O)c1ccccn1)C(=O)Nc1nccs1)N(O)C=O` (some centres not stated), with 50 nM; and `CC(C)Cn1c(Sc2ccc(C#N)c([N+](=O)[O-])c2)nnc1-c1cccs1`, with 1080 nM. `CCCCCCCC/C=C\CCCCCCCC(=O)NCc1ccc(O)c(OC)c1` yielded a concentration for half-maximal inhibition (IC50) of 400 nM. This IC50 is about 2.7-fold lower than that of the molecule before.

`CCC(C)OC(=O)C1=C(C)NC2=C(C(=O)CC(c3ccc(OC)c(OC)c3)C2)C1c1ccc(O)cc1` (configuration not stated): the half-inhibitory concentration (IC50) amounted to 220 nM.

As to `Cc1nn(-c2ccccc2)nc1C(=O)NC1CCN(CCNC(=O)c2ccc(Cl)c(Cl)c2)CC1`, the IC50 is 870 nM. Then `O=C(CCN1C(=O)c2ccccc2C1=O)N1CCN(CC=Cc2ccccc2)CC1`, with 540 nM. Molecule `COc1cc2nc(NCCc3ccccc3)nc(NCc3cc(C)no3)c2cc1OC` gave a concentration for half-maximal inhibition (IC50) of 240 nM. `N#Cc1cccc(Nc2nccc(NCC(O)c3ccccc3C(F)(F)F)n2)c1` (configuration not stated) came in with a 50% inhibitory concentration (IC50) of 830 nM. `CCCc1cc(N2CCC(N3CCCC3)CC2)nc(Nc2ccc(Cl)cc2)n1` yielded an IC50 of 760 nM. As for `CN1CCN(CCCN(Cc2ccc(-c3ccc(CNCc4ccc5c(c4)OCO5)cc3)cc2)C(=O)CCC2CCCC2)CC1`, the IC50 is 950 nM. Then `CCCCN(C)CC#Cc1ccc(-c2ccc3[nH]c(C)c(Br)c(=O)c3c2)cn1`, with 650 nM. Then `Cc1cc(N(C)C)nc(Nc2ccc(NC(=O)COc3ccccc3)cc2)n1`, with 1760 nM.

`Cc1cc(NC(=O)NCCN2CCC(NS(=O)(=O)c3ccc(Br)cc3)C2)c2ccccc2n1` (configuration not stated): the IC50 stood at 600 nM. Then `Cc1ccccc1C1CCN(C2CCC(NC(=O)c3cc(-c4ccccc4)oc3C)CC2)CC1` (configuration not stated), with 1030 nM; and `Cc1ccccc1Nc1nc(Nc2ccccc2)c2ccccc2n1`, with 1000 nM. Then `COc1ccc(OC)c(NC(=O)C2c3ccccc3C(=O)N(CC(C)C)C2c2cccs2)c1` (configuration not stated), with 810 nM; and `COc1ccc(N2CCc3c(-c4cccc5cnccc45)cc(C)nc32)c(C)c1`, with 660 nM; and `Cc1cccc2[nH]c(-c3ccc(-c4cccc(CNCC5CCCO5)c4)cc3)nc12` (configuration not stated), with 700 nM.

Molecule `Clc1ccc2c(NCc3ccccn3)ccnc2c1` yielded a half-maximal inhibitory concentration (IC50) of 660 nM.

Turning to `Cc1sc2ncnc(Sc3nnc(N)s3)c2c1C`, the IC50 stood at 400 nM. Regarding `Cc1ccc(CN2CCCN(Cc3cccc(C(=O)Nc4ccc(C(C)(C)C)cc4)c3)CC2)s1`, the IC50 came to 1130 nM. Then `N#Cc1ccc(-c2ccc3nc(N4CCCN(C5CCC5)CC4)ccc3c2)cc1`, with 1500 nM; and `Cn1cncc1-c1ccc2c(-c3ccsc3)cnc(N)c2c1`, with 850 nM. Then `CCc1c(CCNCCCCCCNCCc2ccc([N+](=O)[O-])cc2)ccc(O)c1O`, with 780 nM; and `Cc1cc(NCCC(=O)Nc2ccccc2)nc(NCCc2cccs2)n1`, with 890 nM; and `CC(C)CN1CCC(N(C)c2cc(NC(=O)c3cccc(F)c3)ccn2)CC1`, with 850 nM. `O=C(Nc1ccc(Cl)cc1)N1CCN(C2CCCCC2)CC1` returned an IC50 of 990 nM. In the case of `O=C(Nc1cc(F)cc(F)c1)NC1CCN(CCCCCNC(=O)[C@@H]2C[C@H]2c2ccc(Cl)c(Cl)c2)CC1`, the 50% inhibitory concentration (IC50) turned out to be 750 nM. This IC50 and that of the molecule before are within 1.5-fold of each other. The molecule `Cc1ccccc1C1CCN(C2CCC(NC(=O)c3ccc(-c4cc(C(F)(F)F)nn4C)s3)CC2)CC1` (configuration not stated) displayed an IC50 of 850 nM. Then `FC(F)(F)c1ccc2nc(-c3ccc(-c4cccc(CNCC5CCCO5)c4)s3)[nH]c2c1` (configuration not stated), with 370 nM. Then `CCc1c(C)nc(-n2nc(C)cc2NC(=O)c2cccc3ccccc23)[nH]c1=O`, with 680 nM. For the molecule `CCN(CC)CCNc1ccc(Nc2ccnc3cc4ccccc4cc23)cc1`, the IC50 is 200 nM. As to `O=C1COc2ccc(S(=O)(=O)N3CCC[C@@H]3CCN3CCC(c4c[nH]c5cnccc45)CC3)cc2N1`, the concentration for half-maximal inhibition (IC50) was determined as 860 nM. Then `COc1cc(NC(=O)N2CCOC(CCN3CCC(c4ccccc4)CC3)(c3ccc(Cl)c(Cl)c3)C2)cc(OC)c1OC` (configuration not stated), with 70 nM. As for `Cc1nc2nc(N)nc(N)c2c(C)c1Cc1cccc(C#N)c1`, the half-maximal inhibitory concentration (IC50) worked out at 920 nM. As for `c1ccc(CSC2=NNC(c3ccccn3)S2)cc1` (configuration not stated), the half-inhibitory concentration (IC50) came out at 1480 nM. `CC(C)C[C@H](NC(=O)c1cc(-c2ccc(F)cc2)no1)C(=O)O` (tested in a mixture with another compound) yielded a concentration for half-maximal inhibition (IC50) of 980 nM. This IC50 lies about 1.5-fold lower than the previous one.

Take `CNC(=O)c1cnc(Nc2ccc(OCC(O)CN(C)C)cc2)nc1Nc1cccc(OC(C)C)c1` (configuration not stated): the IC50 turned out to be 140 nM.

In turn, `Oc1[nH]c2ccccc2c1N=NC(=S)N1CCOCC1` yielded a half-maximal inhibitory concentration (IC50) of 910 nM. As to `COc1cc(NC2=C(c3ccccc3)C(=O)c3ccccc32)ccn1`, the half-inhibitory concentration (IC50) was 360 nM.

For `Nc1ccnc(N2CCC(CCOc3ccnc4cc(Cl)ccc34)CC2)c1`, the IC50 is 1160 nM. As to `O=S(=O)(c1cccc2cccnc12)N1CCN(C2CCCCC2)CC1`, the IC50 turned out to be 760 nM. Then `Cc1ccccc1N1CCN(c2ccc(C(=O)Nc3ccccc3)cc2)CC1`, with 720 nM; and `COc1ccc2c(c1C1CCN(CCCCNC(=O)c3ccc(NC(=O)c4ccc(Cl)cc4)cc3)CC1)CCCC2`, with 340 nM. Then `Cc1cnc(-c2cccc(C(=O)NC3CCC(CCN4CCc5ccc(C#N)cc5CC4)CC3)c2)[nH]1` (configuration not stated), with 300 nM; and `COc1ccc(CCC(C)(C)NCC(O)c2cccc(C(F)(F)F)c2)cc1` (configuration not stated), with 480 nM; and `CC(C)(C)c1ccc(-c2csc(NC(=O)CC(c3ccccc3)c3ccccc3)n2)cc1`, with 1150 nM. In the case of `COc1cccc(C2(C)CCN(CCCCNC(=O)c3ccc(NC(=O)c4ccc(Cl)cc4)cc3)CC2)c1`, the 50% inhibitory concentration (IC50) worked out at 830 nM.

In turn, `CCN(CC)CC#Cc1ccc2[nH]c(C)c(Cl)c(=O)c2c1` yielded a concentration for half-maximal inhibition (IC50) of 700 nM. For the molecule `Cc1c(-c2cccc(C(C)(C)NCCCN3CCCCC3)c2)cnc(N)c1C`, the IC50 was 940 nM. In turn, `COc1c(CN2CCOCC2)cccc1-c1cc2c(-c3ccc(C(=O)O)c(C(C)C)c3)ccnc2[nH]1` came in with a 50% inhibitory concentration (IC50) of 740 nM. Then `Cc1nc(-c2cccc(Nc3nccc(NCC(O)c4ccc(C(F)(F)F)cc4)n3)c2)cs1` (configuration not stated), with 510 nM; and `Cn1cc(CCNc2ccnc(N3CCC(c4ncc[nH]4)CC3)n2)c2ccccc21`, with 1200 nM; and `O=C(NCCN1CCCCC1)c1cccc(Nc2nccc(Nc3ccc(Oc4ccccc4)cc3)n2)c1`, with 270 nM.

`O=C(Nc1ccc(CC(=O)N2CCc3cc(Cl)c(N4CCN(C/C=C/c5ccccc5)CC4)cc32)cc1)Nc1cccc([N+](=O)[O-])c1` came in with a half-inhibitory concentration (IC50) of 760 nM. Compared with the last molecule, the IC50 is about 2.8-fold higher. For the molecule `CC(Oc1ccc(Cl)cc1)C(=O)Nc1cc(C(F)(F)F)ccc1-n1cncn1` (configuration not stated), the IC50 was determined as 150 nM. Then `COc1ccccc1C1CC(c2ccc(C)cc2)=NN1C(=O)c1ccccc1` (configuration not stated), with 890 nM; and `CCn1ncc2c(N3CCCC3=O)cc(C(=O)N[C@@H](Cc3ccccc3)[C@H](O)CNC(C)(C)c3cccc(C(F)(F)F)c3)cc21`, with 150 nM. For `COc1ccc2c(c1)CC(C)(C)NC2CCCCCCCCC1NC(C)(C)Cc2cc(OC)ccc21` (configuration not stated), the half-inhibitory concentration (IC50) came to 1300 nM. This IC50 is about 8.7-fold higher than that of the molecule before. For the molecule `CN1CCN(CC(=O)Nc2ccc(-c3ccc(-c4nc5ccc(C(F)(F)F)cc5[nH]4)cc3)cc2)CC1`, the IC50 was 420 nM.

Turning to `NC(N)=NN=Cc1ccccc1OCc1ccccc1Cl`, the IC50 stood at 720 nM. For `CCc1cn(C)c2c(N3CCCC3=O)cc(C(=O)N[C@@H](Cc3ccccc3)[C@H](O)CNC(C)(C)c3cccc(OC)c3)cc12`, the IC50 stood at 40 nM. Consider `c1ccc2c(C3CCN(CCCCOc4ccc5c(c4)CCN(CC4CC4)CC5)CC3)c[nH]c2c1`, for which the 50% inhibitory concentration (IC50) amounted to 980 nM. Molecule `N#Cc1cccc(C(=O)Nc2cccc(-c3ccc(CN4CCC(O)CC4)cc3)c2)c1` registered an IC50 of 1300 nM. For the molecule `Cc1cc(N[C@@H](CC(C)C)C(=O)NCCc2ccccc2)nc(NCc2ccccc2C)n1`, the 50% inhibitory concentration (IC50) is 910 nM. This IC50 and that of the molecule before are within 1.5-fold of each other. Then `Cc1cc(Cl)c(S(=O)(=O)N(C)c2ccccc2)cc1OCC(=O)NC1CCCCC1`, with 300 nM.
